How the values were obtained:
Neutrophil elastase = target: T1, Neutrophil elastase (Homo sapiens, UniProt P08246); type: tissue-based;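 note: inhibition of neutrophil elastase enzyme activity, measured with a p-nitroanilide-linked peptide substrate; in other assays of this panel Not Active means under 50% inhibition at 10 µM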
T1 sequence (P08246 whole entry): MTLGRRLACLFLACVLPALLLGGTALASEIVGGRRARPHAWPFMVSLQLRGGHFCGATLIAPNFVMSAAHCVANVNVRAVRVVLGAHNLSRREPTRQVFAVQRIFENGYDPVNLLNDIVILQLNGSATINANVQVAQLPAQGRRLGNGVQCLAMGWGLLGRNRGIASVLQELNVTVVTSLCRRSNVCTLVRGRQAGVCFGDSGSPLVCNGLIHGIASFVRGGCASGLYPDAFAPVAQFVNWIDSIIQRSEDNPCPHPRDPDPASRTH

[1] = target: T2, Amine oxidase [flavin-containing] A (Homo sapiens, UniProt P21397); test: DRUGMATRIX: Monoamine Oxidase MAO-A enzyme inhibition (substrate: Kynuramine); parameters: species or system BTI-TN-5B1-4; details: bti-tn-5b1-4; Not Active = under 50% inhibition at 10 µM
T2 sequence (P21397 whole entry): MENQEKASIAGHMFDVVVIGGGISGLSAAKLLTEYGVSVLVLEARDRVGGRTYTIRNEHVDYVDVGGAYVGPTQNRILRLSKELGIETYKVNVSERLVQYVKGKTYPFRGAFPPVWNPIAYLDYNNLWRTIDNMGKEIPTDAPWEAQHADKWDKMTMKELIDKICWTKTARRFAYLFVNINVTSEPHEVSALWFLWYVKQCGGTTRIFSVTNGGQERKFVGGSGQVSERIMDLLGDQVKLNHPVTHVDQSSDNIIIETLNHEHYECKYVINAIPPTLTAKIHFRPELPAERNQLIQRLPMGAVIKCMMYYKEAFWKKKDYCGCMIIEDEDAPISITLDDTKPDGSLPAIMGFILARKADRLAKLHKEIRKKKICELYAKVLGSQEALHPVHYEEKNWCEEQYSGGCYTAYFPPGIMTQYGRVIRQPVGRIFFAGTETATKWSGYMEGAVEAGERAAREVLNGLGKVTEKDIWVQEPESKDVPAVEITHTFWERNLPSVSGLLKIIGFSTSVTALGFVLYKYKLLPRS

[2] = DRUGMATRIX: Phorbol Ester radioligand binding (ligand: [3H] PDBu); type: cell membranes, Mus musculus, ICR, Brain, Membrane; details: Not Active = under 50% inhibition at 10 µM
[3] = DRUGMATRIX: Platelet-Derived Growth Factor (PDGF) radioligand binding (ligand: [125I] PDGF); type: cell-based; details: nih3t3; Not Active = under 50% inhibition at 10 µM
Carbonic anhydrase 2 = Carbonic anhydrase 2 (Homo sapiens, UniProt P00918); test: DRUGMATRIX: Carbonic Anhydrase II enzyme inhibition (substrate: 4-Nitrophenyl acetate (4-NPA)); type: tissue-based, Erythrocyte; details: erythrocyte; Not Active = under 50% inhibition at 10 µM
Estrogen receptor beta = Estrogen receptor beta (Homo sapiens, UniProt Q92731); details: sf9; note: in other assays of this panel Not Active means under 50% inhibition at 10 µM
Estrogen receptor beta, sequence (Q92731 whole entry): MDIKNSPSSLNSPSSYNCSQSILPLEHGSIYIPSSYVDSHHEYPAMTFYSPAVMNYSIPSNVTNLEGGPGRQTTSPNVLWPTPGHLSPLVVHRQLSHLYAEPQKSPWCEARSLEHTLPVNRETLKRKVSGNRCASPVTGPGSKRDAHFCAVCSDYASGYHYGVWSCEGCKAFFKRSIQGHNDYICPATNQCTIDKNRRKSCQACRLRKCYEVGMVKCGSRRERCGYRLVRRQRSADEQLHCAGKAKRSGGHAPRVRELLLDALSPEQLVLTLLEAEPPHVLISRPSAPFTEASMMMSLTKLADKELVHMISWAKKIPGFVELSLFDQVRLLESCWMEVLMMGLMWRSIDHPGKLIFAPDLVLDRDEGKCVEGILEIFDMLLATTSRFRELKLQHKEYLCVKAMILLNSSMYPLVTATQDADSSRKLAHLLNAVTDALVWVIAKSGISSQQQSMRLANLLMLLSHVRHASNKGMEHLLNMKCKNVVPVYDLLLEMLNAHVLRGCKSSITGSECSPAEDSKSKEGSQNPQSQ

[4] = target: T3, Cholecystokinin receptor type A (Homo sapiens, UniProt P32238); type: cell membranes, Membrane; details: 1321-n1; note: in other assays of this panel Not Active means under 50% inhibition at 10 µM
T3 sequence (P32238 whole entry): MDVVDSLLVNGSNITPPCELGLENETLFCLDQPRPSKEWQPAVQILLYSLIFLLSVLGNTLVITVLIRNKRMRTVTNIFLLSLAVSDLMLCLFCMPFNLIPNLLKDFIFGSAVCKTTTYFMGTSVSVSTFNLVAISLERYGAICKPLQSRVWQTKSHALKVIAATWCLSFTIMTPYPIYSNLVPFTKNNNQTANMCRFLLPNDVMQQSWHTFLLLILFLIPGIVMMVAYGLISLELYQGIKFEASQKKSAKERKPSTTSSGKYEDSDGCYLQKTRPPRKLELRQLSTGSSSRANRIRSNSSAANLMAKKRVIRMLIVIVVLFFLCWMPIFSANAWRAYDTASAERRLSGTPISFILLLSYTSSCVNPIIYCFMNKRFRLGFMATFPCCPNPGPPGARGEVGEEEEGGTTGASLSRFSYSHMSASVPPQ

D(1A) dopamine receptor = D(1A) dopamine receptor (Homo sapiens, UniProt P21728); test: DRUGMATRIX: Dopamine D1 radioligand binding (ligand: [3H] SCH-23390); type: cell membranes, CHO, Membrane; details: cho; Not Active = under 50% inhibition at 10 µM
D(1A) dopamine receptor, sequence (P21728 whole entry): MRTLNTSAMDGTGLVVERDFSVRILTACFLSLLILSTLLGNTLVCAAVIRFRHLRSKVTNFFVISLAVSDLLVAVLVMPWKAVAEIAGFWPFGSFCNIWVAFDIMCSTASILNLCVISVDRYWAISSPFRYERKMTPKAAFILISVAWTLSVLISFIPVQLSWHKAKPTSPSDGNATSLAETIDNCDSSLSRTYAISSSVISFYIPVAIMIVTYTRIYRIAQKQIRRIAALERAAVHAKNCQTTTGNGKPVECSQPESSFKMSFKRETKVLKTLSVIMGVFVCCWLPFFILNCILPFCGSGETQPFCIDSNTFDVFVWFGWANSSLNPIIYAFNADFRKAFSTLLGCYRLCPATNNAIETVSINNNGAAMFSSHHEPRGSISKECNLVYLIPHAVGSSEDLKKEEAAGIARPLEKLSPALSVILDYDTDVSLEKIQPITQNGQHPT

[5] = DRUGMATRIX: Glutamate, NMDA, Phencyclidine radioligand binding (ligand: [3H] TCP); type: cell membranes, Rattus norvegicus, Wistar, Cerebral cortex, Membrane; details: Not Active = under 50% inhibition at 10 µM
[6] = DRUGMATRIX: Purinergic P2X radioligand binding (ligand: [3H] alpha, beta-Methylene-ATP); type: cell membranes, Oryctolagus cuniculus, New Zealand albino, Urinary bladder, Membrane; details: Not Active = under 50% inhibition at 10 µM
[7] = DRUGMATRIX: Interleukin IL-1 radioligand binding (ligand: [125I] interleukin 1beta); type: cell membranes, Membrane; details: nih3t3; Not Active = under 50% inhibition at 10 µM
[8] = target: T4, Alpha-2A adrenergic receptor (Homo sapiens, UniProt P08913); type: cell membranes, Sf9, Membrane; details: sf9; note: in other assays of this panel Not Active means under 50% inhibition at 10 µM
T4 sequence (P08913 whole entry): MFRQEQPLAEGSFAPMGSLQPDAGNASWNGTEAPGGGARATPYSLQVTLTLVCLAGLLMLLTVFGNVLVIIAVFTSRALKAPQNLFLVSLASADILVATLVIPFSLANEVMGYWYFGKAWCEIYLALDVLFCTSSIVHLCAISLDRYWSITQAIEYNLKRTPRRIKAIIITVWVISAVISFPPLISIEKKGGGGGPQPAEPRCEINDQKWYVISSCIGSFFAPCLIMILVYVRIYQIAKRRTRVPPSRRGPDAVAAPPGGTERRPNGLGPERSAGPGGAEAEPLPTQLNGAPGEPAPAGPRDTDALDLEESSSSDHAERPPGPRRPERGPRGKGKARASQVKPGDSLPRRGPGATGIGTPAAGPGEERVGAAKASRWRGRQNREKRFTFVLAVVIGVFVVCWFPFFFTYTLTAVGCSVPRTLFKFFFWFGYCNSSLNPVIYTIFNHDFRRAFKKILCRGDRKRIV

[9] = target: T5, Cysteinyl leukotriene receptor 1 (Homo sapiens, UniProt Q9Y271); type: cell membranes, CHO-K1, Membrane; details: cho-k1; note: in other assays of this panel Not Active means under 50% inhibition at 10 µM
T5 sequence (Q9Y271 whole entry): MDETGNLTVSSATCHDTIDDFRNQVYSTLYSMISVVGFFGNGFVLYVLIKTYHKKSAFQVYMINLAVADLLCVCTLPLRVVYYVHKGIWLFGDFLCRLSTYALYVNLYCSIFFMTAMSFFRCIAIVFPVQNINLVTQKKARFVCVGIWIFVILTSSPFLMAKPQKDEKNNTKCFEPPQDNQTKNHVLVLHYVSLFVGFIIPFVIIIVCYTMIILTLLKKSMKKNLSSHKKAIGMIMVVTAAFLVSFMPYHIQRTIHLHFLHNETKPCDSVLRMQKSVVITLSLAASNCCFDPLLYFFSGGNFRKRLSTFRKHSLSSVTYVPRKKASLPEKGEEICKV

[10] = DRUGMATRIX: Phosphodiesterase PDE3 enzyme inhibition (substrate: [3H]cAMP + cAMP); type: tissue-based, Homo sapiens; details: platelet; Not Active = under 50% inhibition at 10 µM

COC(=O)[C@H](c1ccccc1Cl)N1CCc2sccc2C1 [CLOPIDOGREL]
Not Active: IC50 (Neutrophil elastase) | IC50 [1] | IC50 [2] | Ki [2] | IC50 [3] | Ki [3] | IC50 (Carbonic anhydrase 2) | IC50 (Estrogen receptor beta) | IC50 [4] | IC50 (D(1A) dopamine receptor) | IC50 [5] | Ki [5] | IC50 [6] | Ki [6] | IC50 [7] | Ki [7] | IC50 [8] | IC50 [9] | IC50 [10] | Ki [10]

C[C@]12CCC(=O)C=C1CC[C@@H]1[C@@H]2C(=O)C[C@@]2(C)[C@H]1CC[C@]2(O)C(=O)CO [CORTISONE]
Not Active: IC50 (Neutrophil elastase) | IC50 [1] | IC50 [2] | Ki [2] | IC50 [3] | Ki [3] | IC50 (Carbonic anhydrase 2) | IC50 (Estrogen receptor beta) | IC50 [4] | IC50 (D(1A) dopamine receptor) | IC50 [5] | Ki [5] | IC50 [6] | Ki [6] | IC50 [7] | Ki [7] | IC50 [8] | IC50 [9] | IC50 [10] | Ki [10]

Cc1ccccc1N1CCN(CCc2nnc3n2CCCC3)CC1 [DAPIPRAZOLE]
Not Active: IC50 (Neutrophil elastase) | IC50 [1] | IC50 [2] | Ki [2] | IC50 [3] | Ki [3] | IC50 (Carbonic anhydrase 2) | IC50 (Estrogen receptor beta) | IC50 [4] | IC50 (D(1A) dopamine receptor) | IC50 [5] | Ki [5] | IC50 [6] | Ki [6] | IC50 [7] | Ki [7] | IC50 [8] | IC50 [9] | IC50 [10] | Ki [10]

CC(=O)OCC(=O)[C@@]1(OC(C)=O)[C@@H](C)C[C@H]2[C@@H]3C[C@H](F)C4=CC(=O)C=C[C@]4(C)[C@@]3(F)[C@@H](O)C[C@@]21C [DIFLORASONE DIACETATE]
Not Active: IC50 (Neutrophil elastase) | IC50 [1] | IC50 [2] | Ki [2] | IC50 [3] | Ki [3] | IC50 (Carbonic anhydrase 2) | IC50 (Estrogen receptor beta) | IC50 [4] | IC50 (D(1A) dopamine receptor) | IC50 [5] | Ki [5] | IC50 [6] | Ki [6] | IC50 [7] | Ki [7] | IC50 [8] | IC50 [9] | IC50 [10] | Ki [10]

COc1ccc([C@@H]2Sc3ccccc3N(CCN(C)C)C(=O)[C@@H]2OC(C)=O)cc1 [DILTIAZEM]
Not Active: IC50 (Neutrophil elastase) | IC50 [1] | IC50 [2] | Ki [2] | IC50 [3] | Ki [3] | IC50 (Carbonic anhydrase 2) | IC50 (Estrogen receptor beta) | IC50 [4] | IC50 (D(1A) dopamine receptor) | IC50 [5] | Ki [5] | IC50 [6] | Ki [6] | IC50 [7] | Ki [7] | IC50 [8] | IC50 [9] | IC50 [10] | Ki [10]

— ChEMBL document CHEMBL1909046, “DrugMatrix in vitro pharmacology data”
